Calls of active or inactive are those of the source. No stated cut-off is given here; in the data, actives have a measured IC50 and inactives only a lower limit.
target: Envelope glycoprotein gp160 (Human immunodeficiency virus 1, UniProt Q6QLK5); assay: cell-free HIV fusion peptide-binding blockers – biochemical, uHTS, fluorescence dequenching, […] (AID 1986)
Sequence (Q6QLK5 whole entry, the tested form may be a part): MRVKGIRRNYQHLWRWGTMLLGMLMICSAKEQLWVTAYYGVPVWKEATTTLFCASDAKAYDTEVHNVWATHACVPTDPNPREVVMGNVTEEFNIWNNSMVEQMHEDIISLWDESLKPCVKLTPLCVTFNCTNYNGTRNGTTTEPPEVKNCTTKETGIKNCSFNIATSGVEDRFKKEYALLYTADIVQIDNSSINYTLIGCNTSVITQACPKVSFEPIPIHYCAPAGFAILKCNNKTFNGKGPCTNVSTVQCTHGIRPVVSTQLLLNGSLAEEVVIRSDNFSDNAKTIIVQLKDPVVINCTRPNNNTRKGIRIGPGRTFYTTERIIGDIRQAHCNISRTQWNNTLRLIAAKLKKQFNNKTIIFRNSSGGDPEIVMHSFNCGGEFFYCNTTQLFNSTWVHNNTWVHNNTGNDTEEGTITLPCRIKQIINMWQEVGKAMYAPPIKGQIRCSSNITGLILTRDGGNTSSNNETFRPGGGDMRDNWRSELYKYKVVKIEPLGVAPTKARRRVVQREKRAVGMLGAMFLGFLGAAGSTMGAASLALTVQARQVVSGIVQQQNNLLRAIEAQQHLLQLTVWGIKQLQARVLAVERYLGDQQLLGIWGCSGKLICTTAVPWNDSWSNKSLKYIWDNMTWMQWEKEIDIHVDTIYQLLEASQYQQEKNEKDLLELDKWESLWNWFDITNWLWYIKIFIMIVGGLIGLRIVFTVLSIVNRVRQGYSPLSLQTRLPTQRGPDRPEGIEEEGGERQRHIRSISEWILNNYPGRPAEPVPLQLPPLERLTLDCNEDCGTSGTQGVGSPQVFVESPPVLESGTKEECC

SMILES	IC50
O=C(O)c1[nH]c2ccccc2c1C(c1ccccc1)c1c(C(=O)O)[nH]c2ccccc12	14 µM (active)
Cc1sc(-n2c(C)cc(/C=C3\SC(=S)NC3=O)c2C)c(C#N)c1C	24.1 µM (active)
O=C(O)C1Nc2ccc(Br)cc2C2C=CCC12 (centres undefined)	10.9 µM (active)
CCc1ccc(S(=O)(=O)/N=C2\C=C(NS(=O)(=O)c3ccccc3)C(=O)c3ccccc32)cc1	19.7 µM (active)
